“And” between values parts separate entries of the source, which are not always exact repeats. Equal entries are not always repeated. Where two headings read alike, the source gives them in different places.

For series [1], the system named is TA 98 and TA104 strains containing pMOL1067 or pMOL1068.
For series [2], the system named is E. coli (sfiA-lacZ). The note with it: cited from earlier work.
Series [3] has as its system S. typhimurium. As to conditions: cited from earlier work.
The test system of series [4] is S. typhimurium TA98* containing pMOL890.
Series [5] has as its system S. typhimurium TA100* containing pMOL890.
The subject of series [6] is S. typhimurium TA104* containing pMOL890.
Series [7] deals with S. typhimurium TA104 containing pMOL1066.
Series [8] relates to S. typhimurium TA104 containing pMOL1067.
Series [9] deals with S. typhimurium TA104 containing pMOL1068.
In series [10] the test system is S. typhimurium TA104 containing pMOL1069.
Series [11] has as its system S. typhimurium TA98 containing pMOL1067.
The test system of series [12] is S. typhimurium TA98 containing pMOL1068.
Series [13] has as its system S. typhimurium TA98 containing pMOL890.
Series [14] relates to S. typhimurium TA104 containing pMOL890.
Series [15] concerns TA98 and TA104 strains containing pMOL890, pMOL1067 or pMOL1068. The series can be described thus: Test with the TA98 and TA104 strains containing pMOL890, pMOL1067 or pMOL1068.
Series [16] deals with novel biosensor systems in E. coli and in S. typhimurium strains. As to the kind of experiment: Subject SOS promoter-lux systems (general statements). The note with it: for result in the novel systems according to the invention: agents known to give false negative results in the SOS chromotest and the Ames test. Background: The Ames test uses bacterial strains that need an amino acid and regain growth without it when mutated back.

Where [17] appears, read: TA 98 and TA104 strains containing pMOL1067 or pMOL1068.
The mark [18] stands for this setting: SOS chromotest, literature values.

In the case of 4-nitroquinoline-N-oxyde [4-NQO], the “OUTCOME (genotoxicity, final outcome)” value in [1] was “pos”. Further, in series [2], the “MINIMAL DETECTED CONCENTRATION (MDC)” value is 0.006 nmol/assay and the “SOS (result)” value is “pos”.

In the case of `c1ccc2cc3ccccc3cc2c1` [Anthracene], the “OUTCOME (genotoxicity, final outcome)” value in [1] (setting [17]) was “neg”. Also, the “SOS (result)” value in [2] (SOS chromotest, Table 3) is reported as “neg”. In series [3], the “AMES (result)” value was “neg”.

On to `c1ccc2c(c1)cc1ccc3cccc4ccc2c1c34` [BαP, benzo-α-pyrene], for which the “Number of His^+ revertants” value is 24 in [4] (BαP 10 mmol + S9); 0 in series [4] (BαP 50 mmol − S9); 49 and 50 in series [4] (BαP 200 mmol + S9); 0 in [4] (BαP 200 mmol − S9); 29 and 33 in series [4] (BαP 600 mmol + S9); 0 in [4] (BαP 600 mmol − S9). The “Number of His^+ revertants” value in series [5] (BαP 10 mmol + S9) is 67 and 80; in [5] (BαP 50 mmol + S9), 64 and 54; in series [5] (BαP 50 mmol − S9), 15 and 11; in [5] (BαP 200 mmol + S9), 59 and 58; in series [5] (BαP 600 mmol + S9), 74 and 73; in [5] (BαP 600 mmol − S9), 6 and 3. Also, the “Number of His^+ revertants” value in series [6] (BαP 50 mmol + S9) is 82 and 85; in series [6] (BαP 50 mmol − S9) it was 29 and 27; in [6] (BαP 200 mmol + S9), 87; in series [6] (BαP 200 mmol − S9), 26 and 32; in series [6] (BαP 600 mmol + S9), 57 and 69; in series [6] (BαP 600 mmol − S9), 21 and 19. Further, the “MINIMAL DETECTED CONCENTRATION (MDC)” value in series [7] (TA104 pMOL1066) came to 0.16 nmol/assay; in series [8] (TA104 pMOL1067), 0.079 nmol/assay; in [9] (TA104 pMOL1068) it was 0.16 nmol/assay; in series [10] (TA104 pMOL1069), 0.16 nmol/assay; in series [11] (TA98 pMOL1067) it was 0.16 nmol/assay; in series [12] (TA98 pMOL1068), 0.16 nmol/assay. Besides, the “MINIMAL DETECTED CONCENTRATION (MDC)” value in series [13] (TA98 pMOL890) is reported as 1.59 nmol/assay; in [14] (TA104 pMOL890) it was 0.32 nmol/assay; in [2] (setting [18]), 0.7 nmol/assay. In series [1] (setting [17]), the “OUTCOME (genotoxicity, final outcome)” value was “pos”. Besides, in series [2] (SOS chromotest, Table 3), the “SOS (result)” value was “pos”.

In the case of `COC(=O)N/N=C/c1c[n+]([O-])c2ccccc2[n+]1[O-]` [Carbadox], the “OUTCOME (genotoxicity, final outcome)” value in series [1] (setting [17]) was “pos”. For the same compound, the “SOS (result)” value in [2] (SOS chromotest, Table 3) is “pos”. The “AMES (result)” value in series [3] (Ames test, Table 3) is recorded as “pos”.

Take `CNC(=O)Oc1cccc2ccccc12` [Carbaryl]: the “SOS (result)” value in series [2] was “pos”.

On to `[Cl][Cd][Cl]` [CdCl2], for which the “MINIMAL DETECTED CONCENTRATION (MDC)” value in [7], in series [8], in [9], in series [10], in series [11] and in [12] was “neg” throughout. The “MINIMAL DETECTED CONCENTRATION (MDC)” value in [13], in series [14], in series [2] and in series [3] was “neg” in each case. In [1], the “OUTCOME (genotoxicity, final outcome)” value was “neg”. The “SOS (result)” value in series [2] is reported as “neg”. Besides, in series [3], the “AMES (result)” value is recorded as “neg”.

As to `O=P1(N(CCCl)CCCl)NCCCO1` (centres unmarked) [Cyclophosphamide], the “OUTCOME (genotoxicity, final outcome)” value in [1] is listed as “neg”. The “SOS (result)” value in series [2] is given as “neg”. For the same compound, in [3], the “AMES (result)” value is on record as “pos”. Further, the “result in the test (genotoxicity)” value in series [15] is “negative”.

As to `ClCC1CO1` (centres unmarked) [Epichlorohydrine], in [1], the “OUTCOME (genotoxicity, final outcome)” value was “pos”. Also, in series [2], the “SOS (result)” value is reported as “pos”. Besides, the “AMES (result)” value in series [3] was “pos”.

In the case of `S=C1NCCN1` [Ethylenethiourea], the “AMES (result)” value in [3] is given as “pos”.

For `CCOS(C)(=O)=O` [Ethylmethanesulphonate], the “OUTCOME (genotoxicity, final outcome)” value in series [1] is listed as “pos”. Also, the “SOS (result)” value in series [2] is “pos”. For the same compound, in series [3], the “AMES (result)” value is “pos”.

With `NN` [Hydrazine], the “OUTCOME (genotoxicity, final outcome)” value in series [1] (setting [17]) was “pos”. The “SOS (result)” value in series [2] (SOS chromotest, Table 3) was “pos”. The “AMES (result)” value in series [3] is “pos”.

For the compound `COc1ccc2nc3cc(Cl)ccc3c(NCCCNCCCl)c2c1` [ICR191], the “MINIMAL DETECTED CONCENTRATION (MDC)” value is 1.1 nmol/assay in series [7] (Salmonella typhimurium); 0.55 nmol/assay in [8] (Salmonella typhimurium); 0.55 nmol/assay in series [9] (Salmonella typhimurium); 1.1 nmol/assay in series [10] (Salmonella typhimurium); 0.28 nmol/assay in series [11] (Salmonella typhimurium); 0.14 nmol/assay in [12] (Salmonella typhimurium). Moreover, the “MINIMAL DETECTED CONCENTRATION (MDC)” value is on record as 0.14 nmol/assay in [13] (Salmonella typhimurium), 0.14 nmol/assay in series [14] (Salmonella typhimurium), 0.13 nmol/assay in series [2] and “pos” in [3]. Also, the “OUTCOME (genotoxicity, final outcome)” value in series [1] is reported as “pos”. The “SOS (result)” value in series [2] was “pos”. Further, the “AMES (result)” value in series [3] is on record as “pos”.

`Cl[C@H]1[C@H](Cl)[C@@H](Cl)[C@@H](Cl)[C@H](Cl)[C@H]1Cl` [Lindane]: in series [1] (setting [17]), the “OUTCOME (genotoxicity, final outcome)” value was “neg”. Moreover, in series [2] (SOS chromotest, Table 3), the “SOS (result)” value is recorded as “neg”. For the same compound, in [3], the “AMES (result)” value is listed as “neg”.

As to `CN(Cc1cnc2nc(N)nc(N)c2n1)c1ccc(C(=O)N[C@@H](CCC(=O)O)C(=O)O)cc1` [Methotrexate], in series [1] (setting [17]), the “OUTCOME (genotoxicity, final outcome)” value is on record as “pos”. Moreover, the “SOS (result)” value in series [2] (SOS chromotest, Table 3) is “pos”. Further, in series [3] (Ames test, Table 3), the “AMES (result)” value is listed as “pos”.

Take `CO[C@@]12[C@H](COC(N)=O)C3=C(C(=O)C(C)=C(N)C3=O)N1C[C@@H]1N[C@@H]12` [Mitomycin C]: the “level that can be detected” value in series [16] (subject systems) came out at 7 ng/mL.

Take `CCN(CC)N=O` [N-Nitrosodiethylamine]: the “OUTCOME (genotoxicity, final outcome)” value in [1] (setting [17]) is “pos”. Besides, the “SOS (result)” value in series [2] (SOS chromotest, Table 3) is recorded as “pos”. In [3], the “AMES (result)” value is recorded as “pos”.

On to `CCn1cc(C(=O)O)c(=O)c2ccc(C)nc21` [Nalidixic acid], for which the “OUTCOME (genotoxicity, final outcome)” value in series [1] (setting [17]) was “pos”. Besides, in series [3], the “AMES (result)” value was “neg” and the “result in the Ames test” value is recorded as “False-negative”. Moreover, the “result in the novel systems according to the invention” value (“result in the novel systems according” for short) in [16] is reported as “positive”. The “result in the test (genotoxicity)” value in series [15] is reported as “positive”.

`c1ccc2ccccc2c1` [Naphtalene]: the “OUTCOME (genotoxicity, final outcome)” value in series [1] is “neg”. For the same compound, the “SOS (result)” value in series [2] is listed as “neg”.

Turning to `O=C(N/N=C/c1ccc([N+](=O)[O-])o1)c1ccc(O)cc1` [Nifuroxazide], the “OUTCOME (genotoxicity, final outcome)” value in series [1] (setting [17]) was “pos”. The “AMES (result)” value in [3] (Ames test, Table 3) is recorded as “pos”.

Consider `Oc1c(Cl)c(Cl)c(Cl)c(Cl)c1Cl` [Pentachlorophenole], for which the “SOS (result)” value in [2] is listed as “pos”.

On to `c1cc2ccc3cccc4ccc(c1)c2c34` [Pyrene], for which, in series [1] (setting [17]), the “OUTCOME (genotoxicity, final outcome)” value is recorded as “pos”. Further, in series [3], the “AMES (result)” value is on record as “neg” and the “result in the Ames test” value was “False-negative”. In addition, the “result in the novel systems according” value in series [16] is on record as “positive”. In addition, in series [15], the “result in the test (genotoxicity)” value is listed as “positive”.

In the case of `CCCCCCCCCCCCOS(=O)(=O)[O-].[Na+]` [Sodium Dodecyl Sulphate], in [1] (setting [17]), the “OUTCOME (genotoxicity, final outcome)” value is “neg”. Moreover, in [3] (Ames test, Table 3), the “AMES (result)” value is “neg”.

In the case of `[N-]=[N+]=[N-]` [Sodiumazide], the “OUTCOME (genotoxicity, final outcome)” value in series [1] (setting [17]) is “pos”. In [2] (SOS chromotest, Table 3), the “SOS (result)” value is “neg”. For the same compound, the “result in the SOS chromotest” value in series [2] (text b126) is recorded as “negative”. Besides, in [3], the “AMES (result)” value was “pos”. In series [16], the “result in the novel systems according” value is “positive”. In addition, in series [15], the “result in the test (genotoxicity)” value is “positive”.

`[Cl-].[Cl-].[Zn+2]` [ZnCl2]: the “OUTCOME (genotoxicity, final outcome)” value in series [1] is “neg”. Further, the “SOS (result)” value in [2] is “neg”. Moreover, the “AMES (result)” value in series [3] is “neg”.

Consider `c1ccc2c(c1)ccc1c3ccccc3ccc21` [chrysene], for which the “MINIMAL DETECTED CONCENTRATION (MDC)” value in series [7] (TA104 pMOL1066) came out at 1.095 nmol/assay; in series [8] (TA104 pMOL1067) it was 0.55 nmol/assay; in [9] (TA104 pMOL1068), 1.095 nmol/assay; in series [10] (TA104 pMOL1069) it was 0.55 nmol/assay; in [11] (TA98 pMOL1067), 5.5 nmol/assay; in series [12] (TA98 pMOL1068), 5.5 nmol/assay. Besides, the “MINIMAL DETECTED CONCENTRATION (MDC)” value was 2.2 nmol/assay in series [13] (TA98 pMOL890), 2.2 nmol/assay in [14] (TA104 pMOL890), 11 nmol/assay in series [2] (setting [18]) and “pos” in series [3]. Further, the “OUTCOME (genotoxicity, final outcome)” value in series [1] (setting [17]) is “pos”. Besides, the “SOS (result)” value in series [2] (SOS chromotest, Table 3) is on record as “pos”. The “AMES (result)” value in series [3] was “pos”.

These data come from patent publication US6521751B1, “Recombinant nucleic acid sequences and methods for determining both genotoxicity and mutagenicity of a sample and the kinetics of the genotoxicity” (Vlaamse Instelling voor Technologisch Onderzoek (VITO), priority 1998, dated 2003).
